Patent US6426340B1, “Prevention and treatment of colorectal cancer by 6-fluoroursodeoxycholic acid (6-FUDCA)” (Novartis AG, priority 1996, dated 2002)
Marks after values point to notes of the source that are not given here.

How the values were obtained:
[1] = tested on: aberrant crypt foci (ACF) in AOM rat model; test: Development of ACF in AOM rat model, 5 weeks study; format: in vivo, Male albino Fischer-344 rats; details: diet with UDCA 0.4%, 6-FUDCA 0.4% or piroxicam 75 ppm, means ± Std. Dev., N=10
Description: Animals. Male albino Fischer-344 rats, initially weighing approximately 90-130 g, were used in these experiments. All diets were obtained from Dyets, Inc. (Bethlehem, Pa.). On arrival, the animals were quarantined for 1 week and then divided into the following experimental groups: Group 1—Standard AIN-76 diet only with no added agents (control group). Group 2—AIN-76 diet plus UDCA 0.4%. Group 3—AIN-76 diet plus 6-FUDCA 0.4%. Group 4—AIN-76 diet plus piroxicam 75 ppm (included for a known positive drug control). Protocol of Study. All rats were fed their assigned diets for 2 weeks, following which 10 rats in each group (except control group) were given s.c. injections of AOM (Sigma Chemical Co.; 15 mg/kg body weight) once a week for 2 weeks, while 5 rats received AOM vehicle. Control rats received AOM vehicle only. A week later (at week 3) rats received a second dose of carcinogen (AOM 15 mg/kg) while control rats received AOM vehicle. Each group was then maintained on their respective experimental diet for an additional 3 weeks. At this time, day 42, the rats were sacrificed; their colons were removed, opened, washed with normal saline, and examined macroscopically and microscopically for the presence of tumors. Aberrant crypts were quantified by direct microscopic counting of methylene blue stained whole colon. Stool specimens were removed from the colon at the time of termination, snap frozen, and maintained frozen for subsequent analysis of fecal bile acids. Statistical Methods. The data were analyzed using the Aspin-Welch t-test, two sided. A value of P<0.05 was considered significant.

[2] = tested on: aberrant crypt foci (ACF) in AOM rat model; test: Development of ACF in AOM rat model, 12 weeks study; format: in vivo, Male albino Fischer-344 rats; details: for Multiplicity of ACF / Nr of ACF / Total AC count: AOM rat model, 12 weeks study, diet supplementation, means ± Std. Dev., N=12
Protocol: Animals. Male albino Fischer-344 rats, initially weighing approximately 90-130 g, were used in these experiments. All diets were obtained from Dyets, Inc. (Bethlehem, Pa.). On arrival, the animals were quarantined for 1 week and then divided into the following experimental groups: Protocol of Study. […] Control rats received AOM vehicle only. A week later (at week 3) rats received a second dose of carcinogen (AOM 15 mg/kg) while control rats received AOM vehicle. […] Aberrant crypts were quantified by direct microscopic counting of methylene blue stained whole colon. Stool specimens were removed from the colon at the time of termination, snap frozen, and maintained frozen for subsequent analysis of fecal bile acids. Statistical Methods. The data were analyzed using the Aspin-Welch t-test, two sided. A value of P<0.05 was considered significant. The protocol for this Example was the same as that for Example I except that 12 rats were included in each AOM-treated group and 6 rats in each control group. Carcinogen was administered on Days 14 and 21. The rats were then continued on the diets containing the experimental drugs for an additional 10 weeks. The following tables set forth the data obtained in the study.

[3] = Analysis of fecal bile acid levels in the diet-supplemented rats; format: in vivo
Protocol: Protocol of Study. All rats were fed their assigned diets for 2 weeks, following which 10 rats in each group (except control group) were given s.c. injections of AOM (Sigma Chemical Co.; 15 mg/kg body weight) once a week for 2 weeks, while 5 rats received AOM vehicle. Control rats received AOM vehicle only. A week later (at week 3) rats received a second dose of carcinogen (AOM 15 mg/kg) while control rats received AOM vehicle. Each group was then maintained on their respective experimental diet for an additional 3 weeks. At this time, day 42, the rats were sacrificed; their colons were removed, opened, washed with normal saline, and examined macroscopically and microscopically for the presence of tumors. Aberrant crypts were quantified by direct microscopic counting of methylene blue stained whole colon. Stool specimens were removed from the colon at the time of termination, snap frozen, and maintained frozen for subsequent analysis of fecal bile acids.
Therefore, 6-FUDCA enriches rat bile with therapeutic bile acid to a greater extent then can UDCA. Furthermore, 6-FUDCA reduces the formation of bile acids which are potentially toxic to the colonic mucosa.

[4] = tested on: intestinal bacterial flora; details: 7-dehydroxylation by intestinal bacterial flora; cited from earlier work
[5] = Physicochemical properties of 6-FUDCA compared with UDCA
Description: Additionally, the retention time on C-18 reverse phase HPLC was different for the two fluorinated diastereoisomers. […] The invention relates to the single isomers or diastereoisomers of 6-FUDCA and mixtures thereof.

Structure (SMILES) | Multiplicity of ACF [1] | Nr of ACF [1] | Total AC count [1] | Multiplicity of ACF [2] | Nr of ACF [2] | Total AC count [2] | Aberrant crypts per aberrant crypt focus (FIG. 3) ([2]; rats treated with 6-FUDCA, AOM model) | DC and hyoDC in the feces ([3]; 6-FUDCA rats compared with UDCA rats) | Metabolism by bacteria in the gut ([3]; rat, fecal bile acid analysis) | Resistance to bacterial dehydroxylation [4] | Hydrophilicity (C-18 reverse phase HPLC) ([5]; 6-α-epimer, with respect to UDCA) | Critical micellar concentration ([5]; compared with UDCA) | Critical micellar pH ([5]; compared with UDCA) | Water solubility ([5]; compared with UDCA)
CN1C(C(=O)Nc2ccccn2)=C(O)c2ccccc2S1(=O)=O [PIROXICAM, piroxicam] | 3.0 ± 0.2 | 62.9 ± 9.4^b) | 190.1 ± 30.7^b) | 3.4 ± 0.3 | 156.3 ± 34.0^b) | 625.3 ± 136.1^b) | – | – | – | – | – | – | – | –
C[C@H](CCC(=O)O)[C@H]1CC[C@H]2[C@@H]3[C@@H](O)[C@H](F)[C@@H]4C[C@H](O)CC[C@]4(C)[C@H]3CC[C@]12C [6-FUDCA, 3α, 7βdihydroxy-6α-fluoro-5β-cholanoic acid] | 1.9 ± 0.1^b) | 84.4 ± 16.3 | 160.7 ± 34.6^b) | 2.7 ± 0.3^b) | 130.1 ± 35.5^b) | 350.6 ± 87.3^b) | aberrant crypt foci with fewer aberrant crypts | less DC and hyoDC are seen in the feces of 6-FUDCA rats than in UDCA rats | not metabolized by bacteria in the gut | extremely resistant to bacterial dehydroxylation | increased hydrophilicity with respect to UDCA | slightly lower | lower than that of UDCA | higher than that of UDCA
C[C@H](CCC(=O)O)[C@H]1CC[C@H]2[C@@H]3[C@@H](O)C[C@@H]4C[C@H](O)CC[C@]4(C)[C@H]3CC[C@]12C [UDCA, ursodeoxycholic acid] | 2.0 ± 0.2^b) | 108.1 ± 34.7 | 218.3 ± 73.3^b) | 2.8 ± 0.2^b) | 161.2 ± 37.8^b) | 445.5 ± 87.4^b) | – | – | – | – | – | – | – | –
